Patent publication US8741889B2, “Method of treating non-small cell lung cancer and colon cancer with gamma-secretase inhibitor” (Hoffmann-La Roche Inc, priority 2008, dated 2014)

Tested on: A549 non-small cell lung carcinoma (NSCLC) xenografts
Assay: Antitumor efficacy in A549 NSCLC xenografts in nude mice
Type: in vivo
Conditions: for % TGI: day 47
Description: In the current study, compound (1) was evaluated for its antitumor activity against the A549 NSCLC human xenograft model in nude mice. A549 cells appear to have a functional Notch signaling pathway since receptors, ligands, and downstream effectors such as Hes-1 and Hey-1 are expressed (as assessed by PCR-based gene expression profiling). A549 cells have at least one identifiable defect in the Notch pathway; the negative regulator Numb is expressed only at low levels. In vitro, nM concentrations of compound (1) induce a less transformed phenotype in A549 cells and loss of growth in soft agar […], which is consistent with mechanistic inhibition of Notch activation. […] Female nude mice (10/group), obtained from Charles River Laboratories (Wilmington, Mass.) were used when they were approximately 13-14 weeks old and weighed approximately 23-25 grams. The health of all animals was determined daily by gross observation of experimental animals and by the analyses of blood samples of sentinel animals that were housed on the shared shelf racks. All animals were allowed to acclimate and recover from any shipping related stress for a minimum of 72 hours prior to experimental use. Autoclaved water and irradiated food [5058-ms Pico chow (mouse) Purina, Richmond, Ind.] were provided ad libitum, and the animals were maintained on a 12 hour light and dark cycle. Cages, bedding and water bottles were autoclaved before use and were changed weekly. A549 human NSCLC cells were purchased from ATCC (Manassas, Va.) and cultured in RPMI 1640 culture medium with 10% (v/v) FBS. Cells were grown and harvested by members of the Oncology In Vivo Section (OIVS). Each mouse received 7.5×10^6 cells in 0.2 ml PBS (Phosphate Buffered Saline) implanted subcutaneously in the right hind flank by members of OIVS on Aug. 17, 2006. […] Compound (1) was mixed vigorously prior to withdrawal and administration. Formulated compound and vehicle were prepared weekly and stored at 4° C., as set out below. […] Treatment began on Sep. 12, 2006 (day 26 post tumor cell implant). […] 19, 2006 (day 33 post tumor cell implant). […] 3, 2006 (day 47 post tumor cell implant). Efficacy data was graphically represented as the mean tumor volume+standard error of the mean (SEM). Tumor volumes of treated groups were presented as percentages of tumor volumes of the control groups (% T/C), using the formula: 100×((T−T0)/(C−C0)), where T represented mean tumor volume of a treated group on a specific day during the experiment, T0 represented mean tumor volume of the same treated group on the first day of treatment; C represented mean tumor volume of a control group on the specific day during the experiment, and C0 represented mean tumor volume of the same treated group on the first day of treatment. Tumor volume (in cubic millimeters) was calculated using the ellipsoid formula: (D×(d2))/2 where ‘D’ represents the large diameter of the tumor, and ‘d’ represents the small diameter. In some cases, tumor regression and/or percent change in tumor volume was calculated using the formula: ((T−T0)/T0)×100 where ‘T’ represents mean tumor volume of the treated group at a particular day, and ‘T0’ represents mean tumor volume of the same treated group at initiation of treatment. Statistical analysis was determined by the rank sum test and One Way Anova and a post-hoc Bonferroni t-test (SigmaStat, version 2.0, Jandel Scientific, San Francisco, Calif.). Differences between groups were considered to be significant when the probability value (p) was ≦0.05. […] Percent tumor growth inhibition was calculated on day 47, which was the final day of treatment for the 21-day treated groups, 7 days post-treatment for 14-day treated groups (14+/7−), or 14-days post treatment for the 7-day treated group (7+/14−).

## CC(C)(C(=O)NCC(F)(F)C(F)(F)F)C(=O)N[C@@H]1C(=O)Nc2ccccc2-c2ccccc21 [Compound (1), 2,2-Dimethyl-N—((S)-6-oxo-6,7-dihydro-5H-dibenzo[b,d]azepin-7-yl)-N′-(2,2,3,3,3-pentafluoro-propyl)-malonamide]
3 mg/kg po bid × 21 days
  % TGI: 83%
3 mg/kg po bid, 14+/7− schedule
  % TGI: 83%
3 mg/kg po qd × 21 days
  % TGI: 76%
3 mg/kg po qd, 14+/7− schedule
  % TGI: 66%
10 mg/kg po bid × 21 days
  % TGI: 72%
10 mg/kg po bid, 14+/7− schedule
  % TGI: 80%
10 mg/kg po qd × 21 days
  % TGI: 70%
10 mg/kg po qd, 14+/7− schedule
  % TGI: 77%
30 mg/kg po bid, 14+/7− schedule
  % TGI: 79%
30 mg/kg po qd × 21 days
  % TGI: 66%
30 mg/kg po qd, 14+/7− schedule
  % TGI: 79%
60 mg/kg bid, 7+/14− schedule (to day 67)
  inhibition of tumor growth sustained post treatment: up to 34 days
60 mg/kg po bid, 7+/14− schedule
  % TGI: 91%
60 mg/kg po qd, 14+/7− schedule
  % TGI: 88%
3, 10 or 30 mg/kg once or twice daily for 14 (14+/7−) or 21 days
  % TGIs (range): 66-83%
All 21-day treated groups (to day 63)
  inhibition of tumor growth sustained post treatment: up to 16 days
All qd or bid groups, 14+/7− schedule (to day 63)
  growth suppression lasting post treatment: up to 23 days
Seven or fourteen days of BID treatment out of a 21 day cycle
  tumor growth inhibition (range): 79-91%
